Assay results published in article PMC11345766, “Computational Design of Pore-Forming Peptides with Potent Antimicrobial and Anticancer Activities” (Journal of Medicinal Chemistry, 2024).
Like-named read-outs stand apart in the source and are kept apart here. Ends that are not written are not given here.

What was measured:
[1] = Calcein dye leakage assay from LUVs; format: biochemical; conditions: for Calcein leakage (%) from LUVs at P:L 1:100 (mol/mol): pH 7.4; for Calcein leakage: even at a higher P:L ratio of 1:10
Excerpt: To verify the pore-forming mechanism of action of the designed AMPs, we performed a calcein leakage assay. […] These lipid vesicles were used as simple mimics of bacterial membranes.[58] At the lowest tested peptide-to-lipid (P:L) ratio of 1:100 (mol/mol), three mutants (LP18, LP26, and LP40) caused >90% leakage, which was higher than the leakage caused by LP1 (87%). […] At the same concentration, LP23 caused leakage equivalent to that caused by LP1. Other mutants had lower leakage activity. At a higher P:L ratio of 1:50, all the abovementioned mutants caused 100% leakage, equivalent to that caused by LP1.
Pore-forming activity was tested using a dye leakage assay measuring the leakage of self-quenching fluorescent dye calcein from POPC:POPG (1:1 mol/mol) LUVs. DiD was mixed with lipids (1:500 mol/mol), and lipid film was created by evaporating chloroform, followed by 4 h of desiccation. Dried lipid film was dissolved in calcein buffer (35 mM calcein, 25 mM NaH2PO4·H2O and Na2HPO4·7H2O (3:7 mol/mol), 20 mM NaCl, and 1 mM EDTA). After 10 freeze–thaw cycles, the sample was extruded 50 times through a 100 nm pore size polycarbonate membrane filter. Free calcein in solution was removed using a HiTrap Desalting column. The concentrations of LUVs and peptides were adjusted to 0.02 and 0.1 mM, respectively, in PBS (25 mM NaH2PO4·H2O and Na2HPO4·7H2O (3:7 mol/mol), 100 mM NaCl, and 1 mM EDTA). The investigated P/L ratio was from 1:100 to 1:10 (mol/mol). Fluorescence intensity was measured using a HORIBA Scientific Jobin Yvon FluoroLog-3 Modular Spectrofluorometer (USA). Excitation and emission wavelengths were set to 495 and 520 nm, respectively. Triton X-100 10% caused 100% leakage used for normalization.

[2] = test system: human red blood cells (HRBCs); conditions: read-out: Hemolysis toxicity (IC50); 1 h incubation
Protocol: To investigate the toxicity for normal human cells, all peptides were first screened against human red blood cells (HRBCs) using a hemolysis assay (Table 2 and Figure S4).
Hemolysis toxicity was tested against HRBCs. Blood samples, collected from the university hospital, were centrifuged twice at 700 × g and once at 1000 × g for 8 min at 4 °C to obtain erythrocyte pellets. Supernatants were always discarded, and pellets were resuspended in PBS (the same as the antimicrobial susceptibility assay). The final RBC suspension was 0.5% (v/v). Dilution series was prepared for concentrations 50 to 0.1 μM in a V-bottom 96-well plate, followed by the addition of RBC suspension. […] After 1 h of incubation at 37 °C, the well plate was centrifuged at 1000 × g for 10 min at 4 °C. The supernatant, collected in a flat-bottom well plate, was measured for OD415 using Tecan Microplate Reader Infinite F500.

E. coli (TOP10) = assay: Broth microdilution antimicrobial susceptibility assay; format: cell-based, Escherichia coli
Excerpt: (§1) To test antimicrobial activity, all peptides were initially screened, in a broth microdilution assay, against Gram-negative Escherichia coli (TOP10) and Gram-positive Staphylococcus carnosus (CCM 4838T) Biosafety Level 1 (BSL-1) bacteria (Table 2). […] Four other mutants (LP3, LP26, LP36, and LP39) had higher activity than LP1 against E. coli, and two mutants (LP23 and LP32) had higher activity than LP1 against S. carnosus. Six mutants (LP29, LP30, LP31, LP33, LP40, and LP43) were not active against one or both bacteria, even at the highest concentration tested (50 μM).
(§2) Antimicrobial activity against E. coli TOP10 and S. carnosus CCM 4838T was tested using the broth microdilution assay. Bacteria were cultured in MHA Petri dish for 24 h, subcultured in an MHB test tube for 6 h at 37 °C, and diluted to 10^6 CFU/mL (OD600). […] Dilution series was prepared for concentrations 50 to 0.1 μM in a flat-bottom 96-well plate, inoculated with bacteria, and incubated for 24 h at 37 °C. Growth control wells were free from test compounds, and sterility control wells were free from bacteria. Bacterial MIC was determined as the lowest concentration of test compounds that inhibited visible growth of bacteria (i.e., no visible turbidity).

S. carnosus (CCM 4838T) = assay: microbe, parasite or virus in culture; format: cell-based, Staphylococcus carnosus; conditions: CCM 4838, 24 h; read-out: Antimicrobial activity (MIC) S. carnosus (CCM 4838T)
Excerpt: as §1, §2

[3] = Protocol: (§3) Cytotoxicity against human immortalized keratinocytes HaCaT, human alveolar basal epithelial A549 (derived from adenocarcinoma), and murine macrophages RAW 264.7 was tested using MTT [3-(4,5-dimethylthiazol-2-yl)-2,5-diphenyltetrazolium bromide] assay. Cells were cultured in Dulbecco’s modified Eagle’s medium (DMEM) containing 4 mM glutamine for HaCaT, or 2 mM glutamine for A549 and RAW 264.7 cells, supplemented with 10% heat-inactivated fetal bovine serum (FBS) and antibiotics (0.1 mg/mL penicillin and streptomycin). Nonessential amino acids (NEAA) and sodium pyruvate (1 mM) were added for macrophages. Cell lines were grown in 25 and 75 cm^2 flasks at 37 °C in a humidified atmosphere with 5% CO2. Cells were suspended in DMEM, containing glutamine, NEAA, and sodium pyruvate (as described above), supplemented with 2% FBS, plated in 96-well plates at 4 × 10^4 cells/well, and incubated at 37 °C in a 5% CO2 atmosphere. After overnight incubation, the medium was replaced with fresh DMEM supplemented with peptides at different concentrations: 2, 4, 8, 16, 32, 64, and 128 μM. Negative controls were cells without peptides. After 24 h of peptide treatment at 37 °C in a 5% CO2 atmosphere, medium was replaced with Hank’s buffer (136 mM NaCl, 0.34 mM Na2HPO4, 0.44 mM KH2PO4, 5.4 mM KCl, 4.1 mM NaHCO3, supplemented with 5.5 mM D-glucose) containing 0.5 mg/mL MTT. Mitochondrial dehydrogenases converted soluble yellow dye MTT to insoluble purple formazan. After 4 h of incubation, acidified isopropanol was added to dissolve formazan crystals and measured for OD570 using Tecan microplate reader Infinite M200 (Salzburg, Austria).
[4] = remark: listed apart in the source
Protocol: as §3

| MIC (E. coli (TOP10); 24 h, MHB) [µM] | Substance | Calcein leakage (%) from LUVs at P:L 1:100 (mol/mol) [1] [%] | IC50 [2] [µM] | MIC (E. coli (TOP10); TOP10, 24 h) [µM] | MIC (S. carnosus (CCM 4838T)) [µM] | IC50 [3] [µM] | Calcein leakage [1] | IC50 [4] [µM] |
| --- | --- | --- | --- | --- | --- | --- | --- | --- |
|  | KKKKLKKILKKLFTFITTLDTTLTDIKTTK-NH2 [LP34] | 79.3 ± 2.4 | > 50 | 0.8 | 0.8 |  |  |  |
|  | KKKKVKKVVKKVFQFVNQVDNQVQDVKQNK-NH2 [LP31] | 0 | > 50 | > 50 | > 50 | > 128 | ≤ 20% |  |
| 0.4 | H-KKKKLKKILKKLFQFINQLDNQLQDFKQNK-OH [LP26] | 91.6 ± 2.8 |  |  | 0.8 |  |  |  |
|  | KNQNLDDILNQLFQFINQLKNQLQKIKKKK-NH2 [LP43] | 64.2 ± 4.6 | > 50 | > 50 | 0.8 |  |  |  |
|  | KKKKAKKAAKKAFQFANQADNQAQDAKQNK-NH2 [LP29] | 0 | > 50 | > 50 | > 50 |  | did not cause any leakage |  |
|  | Ac-KKKKLKKILKKLFQFINQLDNQLQDIKQNK-NH2 [LP23] | 83.3 ± 5.4 | > 50 | 6.3 | 0.4 |  |  |  |
| 0.2 | KKKKLRRILRRLFQFINQLDNQLQDIKQNK-NH2 [LP38] | 76.0 ± 3.3 |  |  | 0.4 |  |  |  |
| 1.6 | KKKKLKKILKKLFQFIDQLINDLQNIKKKK-NH2 [LP20] | 38.6 ± 3.5 |  |  | 1.6 |  |  |  |
| 0.4 | KKKKLKKILKKLWQWINQLDNQLQDIKQNK-NH2 [LP3] | 29.6 ± 1.2 |  |  | 0.8 |  |  |  |
|  | KKKKLKKILKKLIQLINQLDNQLQDIKQNK-NH2 [LP2] | 24.2 ± 2.6 | > 50 | 6.3 | 1.6 |  |  |  |
|  | KKKKLKKILKKLFSFISSLDSSLSDIKSSK-NH2 [LP36] | 71.5 ± 7.4 | > 50 | 0.4 | 0.8 |  |  |  |
|  | KKKKLKKILKKLFNFINNLDNNLNDIKNNK-NH2 [LP37] | 70.3 ± 1.7 | > 50 | 0.2 | 0.4 |  |  |  |
|  | KKKKLKKLLKKLFQFLNQLDNQLQDLKQNK-NH2 [LP32] | 56.3 ± 3.3 | > 50 | 1.6 | 0.4 |  |  | < 2 |
| 0.4 | RRRRLKKILKKLFQFINQLDNQLQDIRQNR-NH2 [LP39] | 65.5 ± 4.2 |  |  | 0.8 |  |  |  |
| 0.2 | H-KKKKLKKILKKLFQFINQLDNQLQDIKQNK-OH [LP22] | 68.0 ± 1.7 |  |  | 0.4 |  |  |  |
|  | KKKKMKKMMKKMFQFMNQMDNQMQDMKQNK-NH2 [LP30] | 21.9 ± 2.5 | > 50 | > 50 | 12.5 |  |  |  |
| 0.8 | KKKKLKKILKKLFQFINQLENQLQEIKQNK-NH2 [LP8] | 29.2 ± 4.9 |  |  | 0.8 |  |  |  |
